Data published in US12599136B2, “Substituted isophthalic acid diamides and their use as herbicides” (Bayer Aktiengesellschaft, priority 2020, dated 2026).

Key:
Format in all cases: in vivo
Echinochloa crus-galli [1] = experiment: Post-emergence herbicidal action against ECHCG; conditions: 20 g/ha, visual assessment about 3 weeks after treatment
Method: (§1) Seeds of monocotyledonous and dicotyledonous weed and crop plants are laid out in sandy loam soil in wood-fiber pots, covered with soil and cultivated in a greenhouse under good growth conditions. 2 to 3 weeks after sowing, the test plants are treated at the one-leaf stage. The compounds of the invention, formulated in the form of wettable powders (WP) or as emulsion concentrates (EC), are then sprayed onto the green parts of the plants in the form of an aqueous suspension or emulsion at a water application rate equivalent to 600 to 800 l/ha, with addition of 0.2% wetting agent. After the test plants have been left to stand in the greenhouse under optimal growth conditions for about 3 weeks, the action of the preparations is assessed visually in comparison to untreated controls (herbicidal action in percent (%): 100% activity=the plants have died, 0% activity=like control plants). […] The tables below illustrate, in an illustrative manner, the post-emergence herbicidal action of the compounds of the invention, the herbicidal activity being stated in percent.

Setaria viridis [2] = experiment: Post-emergence herbicidal action against SETVI; conditions: visual assessment about 3 weeks after treatment
Method: as §1

Abutilon theophrasti [3] = experiment: Pre-emergence herbicidal action against ABUTH; conditions: visual score after 3 weeks vs untreated controls
Source text: (§2) Seeds of monocotyledonous and dicotyledonous weed plants and crop plants are laid out in sandy loam soil in wood-fiber pots and covered with soil. The compounds of the invention, formulated in the form of wettable powders (WP) or as emulsion concentrates (EC), are then applied to the surface of the covering soil in the form of an aqueous suspension or emulsion at a water application rate equivalent to 600 to 800 l/ha, with addition of 0.2% wetting agent. After the treatment, the pots are placed in a greenhouse and kept under good growth conditions for the trial plants. The damage to the test plants is scored visually after a test period of 3 weeks by comparison with untreated controls (herbicidal activity in percent (%): 100% activity=the plants have died, 0% activity=like control plants). […] The tables below illustrate, in an illustrative manner, the post-emergence herbicidal action of the compounds of the invention, the herbicidal activity being stated in percent.

Viola tricolor [4] = experiment: Post-emergence herbicidal action against VIOTR
Method: as §1

Amaranthus retroflexus [5] = experiment: Post-emergence herbicidal action against AMARE; conditions: visual assessment about 3 weeks after treatment
Method: as §1

Echinochloa crus-galli [6] = experiment: Pre-emergence herbicidal action against ECHCG; conditions: 80 g/ha; visual score after 3 weeks vs untreated controls
Source text: as §2

Amaranthus retroflexus [7] = experiment: Pre-emergence herbicidal action against AMARE; conditions: visual score after 3 weeks vs untreated controls
Source text: as §2

Alopecurus myosuroides [8] = experiment: Pre-emergence herbicidal action against ALOMY; conditions: visual score after 3 weeks vs untreated controls
Source text: as §2

Viola tricolor [9] = experiment: Pre-emergence herbicidal action against VIOTR
Source text: as §2

Veronica persica [10] = experiment: Pre-emergence herbicidal action against VERPE; conditions: 80 g/ha
Source text: as §2

Abutilon theophrasti [11] = experiment: Post-emergence herbicidal action against ABUTH
Method: as §1

Alopecurus myosuroides [12] = experiment: Post-emergence herbicidal action against ALOMY
Method: as §1

Veronica persica [13] = experiment: Post-emergence herbicidal action against VERPE; conditions: 20 g/ha, visual assessment about 3 weeks after treatment
Method: as §1

Matricaria inodora [14] = experiment: Post-emergence herbicidal action against MATIN; conditions: visual assessment about 3 weeks after treatment
Method: as §1

Matricaria inodora [15] = experiment: Pre-emergence herbicidal action against MATIN; conditions: visual score after 3 weeks vs untreated controls
Source text: as §2

Setaria viridis [16] = experiment: Pre-emergence herbicidal action against SETVI
Source text: as §2

Avena fatua [17] = experiment: Pre-emergence herbicidal action against AVEFA; conditions: 80 g/ha; visual score after 3 weeks vs untreated controls
Source text: as §2

Pharbitis purpurea = experiment: Post-emergence herbicidal action against PHBPU; conditions: 20 g/ha, visual assessment about 3 weeks after treatment
Method: as §1

Avena fatua [18] = experiment: Post-emergence herbicidal action against AVEFA; conditions: 20 g/ha, visual assessment about 3 weeks after treatment
Method: as §1

SMILES | Post-emergence action against ECHCG in % (Echinochloa crus-galli [1]) | Post-emergence action against SETVI in % (Setaria viridis [2]; 5 g/ha) | Post-emergence action against SETVI in % (Setaria viridis [2]; 20 g/ha) | Pre-emergence action against ABUTH (Abutilon theophrasti [3]; 20 g/ha) | Pre-emergence action against ABUTH (Abutilon theophrasti [3]; 80 g/ha) | Post-emergence action against VIOTR in % (Viola tricolor [4]; 20 g/ha) | Post-emergence action against AMARE in % (Amaranthus retroflexus [5]; 5 g/ha) | Post-emergence action against AMARE in % (Amaranthus retroflexus [5]; 20 g/ha) | Pre-emergence action against ECHCG (Echinochloa crus-galli [6]) | Pre-emergence action against AMARE (Amaranthus retroflexus [7]; 20 g/ha) | Pre-emergence action against AMARE (Amaranthus retroflexus [7]; 80 g/ha) | Pre-emergence action against ALOMY (Alopecurus myosuroides [8]; 80 g/ha) | Pre-emergence action against VIOTR (Viola tricolor [9]; 80 g/ha) | Pre-emergence action against VERPE (Veronica persica [10]) | Post-emergence action against ABUTH (Abutilon theophrasti [11]; 5 g/ha) | Post-emergence action against ABUTH (Abutilon theophrasti [11]; 20 g/ha) | Post-emergence action against ALOMY (Alopecurus myosuroides [12]; 20 g/ha) | Post-emergence action against MATIN in % (Matricaria inodora [14]; 20 g/ha) | Pre-emergence action against MATIN (Matricaria inodora [15]; 20 g/ha) | Pre-emergence action against MATIN (Matricaria inodora [15]; 80 g/ha) | also measured
CCN(CC)C(=O)c1c(C(F)F)ccc(C(=O)Nc2nnnn2CC)c1C [Example 2-59] | 90% | 90% | 90% | 100% | 100% | 90% | 100% | 100% | 90% | 80% | 100% | 90% | 100% | 90% | 90% | 90% | 90% | 90% | 90% | 100% | Post-emergence action against VIOTR in % (Viola tricolor [4]; 5 g/ha): 80%; Pre-emergence action against VIOTR (Viola tricolor [9]; 20 g/ha): 100%; Post-emergence action against VERPE in % (Veronica persica [13]): 90%; Post-emergence action against MATIN in % (Matricaria inodora [14]; 5 g/ha): 80%
CCn1nnnc1NC(=O)c1ccc(Br)c(C(=O)N(C)C)c1Cl [Example 2-191] | – | 100% | 100% | 90% | 100% | 80% | 100% | 100% | 100% | 100% | 100% | 100% | 80% | – | 90% | 90% | 100% | – | 90% | 100% | Pre-emergence action against SETVI (Setaria viridis [16]; 20 g/ha): 100%; Pre-emergence action against SETVI (Setaria viridis [16]; 80 g/ha): 100%; Pre-emergence action against ALOMY (Alopecurus myosuroides [8]; 20 g/ha): 90%; Pre-emergence action against AVEFA (Avena fatua [17]): 90%; Post-emergence action against PHBPU in % (Pharbitis purpurea): 80%
Cn1nnnc1NC(=O)c1ccc(C(F)F)c(C(=O)N(C2CC2)C2CC2)c1Cl [Example 1-175] | – | – | – | 90% | 100% | – | 100% | 100% | – | 80% | 100% | – | 90% | – | 80% | 90% | – | 90% | 90% | 90% | –
CCn1nnnc1NC(=O)c1ccc(C(F)F)c(C(=O)N(C2CC2)C2CC2)c1Cl [Example 2-175] | – | – | – | 100% | 100% | 80% | 100% | 100% | – | 100% | 100% | 90% | 90% | – | 80% | 90% | – | – | 90% | 100% | Pre-emergence action against ALOMY (Alopecurus myosuroides [8]; 20 g/ha): 80%
CCN(CC)C(=O)c1c(C(F)F)ccc(C(=O)Nc2nnnn2C)c1C [Example 1-59] | 80% | 90% | 90% | – | 100% | 80% | 100% | 100% | – | 100% | 100% | 90% | – | 90% | 90% | 90% | 90% | 90% | – | 90% | Pre-emergence action against SETVI (Setaria viridis [16]; 80 g/ha): 100%; Post-emergence action against ALOMY (Alopecurus myosuroides [12]; 5 g/ha): 90%; Post-emergence action against VERPE in % (Veronica persica [13]): 90%; Post-emergence action against AVEFA in % (Avena fatua [18]): 90%
